16 molecules from US8846928B2 (Portola Pharmaceuticals, Inc., priority 2010, dated 2014) can be followed below.

A value given as a limit tells only on which side of the number the result lay.

This experiment deals with T1, full length active recombinant SYK enzyme (Homo sapiens, UniProt P43405).
T1 construct: full length active recombinant SYK enzyme (Millipore, Calif.); purchased Millipore
Briefly: Inhibition of Syk tyrosine phosphorylation activity (LANCE TR-FRET kinase assay). The format is biochemical.
In the case of `CN1CCC(c2ccc(Nc3nc(N[C@@H]4CCCC[C@@H]4N)c(F)cc3C(N)=O)cc2)CC1` [Example 309, 6-((1R,2S)-2-aminocyclohexylamino)-5-fluoro-2-(4-(1-methylpiperidin-4-yl)phenylamino)nicotinamide], the concentration for half-maximal inhibition (IC50) was 10 to 100 nM.

Turning to `NC(=O)c1cc(F)c(N[C@@H]2CCCC[C@@H]2N)nc1Nc1ccc2scnc2c1` [Example 310], the half-maximal inhibitory concentration (IC50) lay in the range of 1 to 10 nM.

As to `NC(=O)c1cc(F)c(N[C@@H]2CCCC[C@@H]2N)nc1Nc1ccccc1` [Example 312, 6-((1R,2S)-2-aminocyclohexylamino)-5-fluoro-2-(phenylamino)nicotinamide], the IC50 was 1 to 10 nM.

In the case of `Cc1ccccc1Nc1nc(N[C@@H]2CCCC[C@@H]2N)c(F)cc1C(N)=O` [Example 313, 6-((1R,2S)-2-aminocyclohexylamino)-5-fluoro-2-(o-tolylamino)nicotinamide], the IC50 lay within 10 to 100 nM.

Turning to `Cc1cccc(Nc2nc(N[C@@H]3CCCC[C@@H]3N)c(F)cc2C(N)=O)c1` [Example 314, 6-((1R,2S)-2-aminocyclohexylamino)-5-fluoro-2-(m-tolylamino)nicotinamide], the IC50 lay within 1 to 10 nM.

Turning to `Cc1ccc(Nc2nc(N[C@@H]3CCCC[C@@H]3N)c(F)cc2C(N)=O)cc1` [Example 315, 6-((1R,2S)-2-aminocyclohexylamino)-5-fluoro-2-(p-tolylamino)nicotinamide], the IC50 is 1 to 10 nM.

For the molecule `NC(=O)c1cc(F)c(N[C@@H]2CCCC[C@@H]2N)nc1Nc1cccc(F)c1` [Example 316, 6-((1R,2S)-2-aminocyclohexylamino)-5-fluoro-2-(3-fluorophenylamino)nicotinamide], the half-maximal inhibitory concentration (IC50) was in the range of 1 to 10 nM.

In the case of `NC(=O)c1cc(F)c(N[C@@H]2CCCC[C@@H]2N)nc1Nc1cccc(Cl)c1` [Example 317, 6-((1R,2S)-2-aminocyclohexylamino)-2-(3-chlorophenylamino)-5-fluoronicotinamide], the IC50 was 1 to 10 nM.

For the molecule `NC(=O)c1cc(F)c(N[C@@H]2CCCC[C@@H]2N)nc1Nc1ccc(Cl)cc1` [Example 318, 6-((1R,2S)-2-aminocyclohexylamino)-2-(4-chlorophenylamino)-5-fluoronicotinamide], the IC50 was 10 to 100 nM.

Turning to `Cc1cccc(Nc2nc(N[C@@H]3CCCC[C@@H]3N)c(F)cc2C(N)=O)c1C` [Example 319, 6-((1R,2S)-2-aminocyclohexylamino)-2-(2,3-dimethylphenylamino)-5-fluoronicotinamide], the 50% inhibitory concentration (IC50) was 10 to 100 nM.

Take `Cc1cc(C)cc(Nc2nc(N[C@@H]3CCCC[C@@H]3N)c(F)cc2C(N)=O)c1` [Example 320, 6-((1R,2S)-2-aminocyclohexylamino)-2-(3,5-dimethylphenylamino)-5-fluoronicotinamide]: the IC50 is 1 to 10 nM.

`Cc1cc(F)cc(Nc2nc(N[C@@H]3CCCC[C@@H]3N)c(F)cc2C(N)=O)c1` [Example 321, 6-((1R,2S)-2-aminocyclohexylamino)-5-fluoro-2-(3-fluoro-5-methylphenylamino)nicotinamide]: the IC50 is < 1 nM.

With `Cc1cc(Nc2nc(N[C@@H]3CCCC[C@@H]3N)c(F)cc2C(N)=O)ccc1F` [Example 322, 6-((1R,2S)-2-aminocyclohexylamino)-5-fluoro-2-(4-fluoro-3-methylphenylamino)nicotinamide], the IC50 was 1 to 10 nM.

In the case of `Cc1ccc(Nc2nc(N[C@@H]3CCCC[C@@H]3N)c(F)cc2C(N)=O)cc1F` [Example 323], the 50% inhibitory concentration (IC50) fell in the range of 1 to 10 nM.

Consider `NC(=O)c1cc(F)c(N[C@@H]2CCCC[C@@H]2N)nc1Nc1cc(F)cc(F)c1` [Example 324, 6-((1R,2S)-2-aminocyclohexylamino)-2-(3,5-difluorophenylamino)-5-fluoronicotinamide], for which the 50% inhibitory concentration (IC50) was in the range of 1 to 10 nM.

On to `NC(=O)c1cc(F)c(N[C@@H]2CCCC[C@@H]2N)nc1Nc1cc(F)cc(Cl)c1` [Example 325, 6-((1R,2S)-2-aminocyclohexylamino)-2-(3-chloro-5-fluorophenylamino)-5-fluoronicotinamide], for which the half-maximal inhibitory concentration (IC50) lay within 1 to 10 nM.

By IC50 is commonly meant the midpoint of a concentration-inhibition curve.
